What was measured:
[1] = system: HUT78 cells; experiment: HUT cell inhibition assay (WST-1 cell viability); type: cell-based; conditions: Homo sapiens; HUT78 cells; IC50 allocated to ranges; read-out: HUT activity
Experimental: (§1) Cancer cell lines (U937 and HUT) growing in log phase were harvested and seeded at 1000-2000 cells/well (100 μl final volume) into 96-well tissue culture plates. Following 24 h of growth cells were treated with Compound. Plates were then re-incubated for a further 72-96 h before a WST-1 cell viability assay was conducted according to the suppliers (Roche Applied Science) instructions.
(§2) Data were expressed as a percentage inhibition of the control, measured in the absence of inhibitor, as follows: % inhibition=100−[(S^i/S^o)×100] where S^i is the signal in the presence of inhibitor and S^o is the signal in the presence of DMSO.
(§3) Dose response curves were generated from 8 concentrations (top final concentration 10 μM, with 3-fold dilutions), using 6 replicates.
(§4) IC50 values were determined by non-linear regression analysis, after fitting the results to the equation for sigmoidal dose response with variable slope (% activity against log concentration of Compound), using Graphpad Prism software.

[2] = system: HeLa cells; experiment: HeLa cell inhibition assay (sulphorhodamine B cell viability); type: cell-based; conditions: Homo sapiens, IC50 allocated to ranges
Experimental: HeLa cells growing in log phase were harvested and seeded at 1000 cells/well (200 μl final volume) into 96-well tissue culture plates. Following 24 h of cell growth cells were treated with compounds (final concentration of 20 μM). Plates were then re-incubated for a further 72 h before a sulphorhodamine B (SRB) cell viability assay was conducted according to the methodology described by Skehan et al, J. Natl. Canc. Inst., 1990, 82, 1107-1112.
Data were expressed as a percentage inhibition of the control, measured in the absence of inhibitor, as follows:— % inhibition=100−[(S^i/S^o)×100] where S^i is the signal in the presence of inhibitor and S^o is the signal in the presence of DMSO.
(§5) IC50 values were determined by non-linear regression analysis, after fitting the results of eight data points to the equation for sigmoidal dose response with variable slope (% activity against log concentration of Compound), using Graphpad Prism software.

[3] = system: U937 cells; experiment: U937 cell inhibition assay (WST-1 cell viability); type: cell-based; conditions: Homo sapiens, U-937; U937 cells; IC50 allocated to ranges; read-out: U937 activity
Experimental: as §1, §2, §3, §4

[4] = target: histone deacetylase activity (HeLa nuclear extract); experiment: HDAC fluorescent activity assay (Fluor de Lys, Biomol); type: biochemical; conditions: IC50 allocated to ranges, read-out: HDAC activity
Experimental: The ability of compounds to inhibit histone deacetylase activities was measured using the commercially available HDAC fluorescent activity assay from Biomol. In brief, the Fluor de Lys™ substrate, a lysine with an epsilon-amino acetylation, is incubated with the source of histone deacetylase activity (HeLa nuclear extract) in the presence or absence of inhibitor. Deacetylation of the substrate sensitises the substrate to Fluor de Lys™ developer, which generates a fluorophore. Thus, incubation of the substrate with a source of HDAC activity results in an increase in signal that is diminished in the presence of an HDAC inhibitor.
Data are expressed as a percentage of the control, measured in the absence of inhibitor, with background signal being subtracted from all samples, as follows: % activity=[(S^i−B)/(S^o−B)]×100 where S^i is the signal in the presence of substrate, enzyme and inhibitor, S^o is the signal in the presence of substrate, enzyme and the vehicle in which the inhibitor is dissolved, and B is the background signal measured in the absence of enzyme.
as §5
Histone deacetylase activity from crude nuclear extract derived from HeLa cells was used for screening. The preparation, purchased from 4C (Seneffe, Belgium), was prepared from HeLa cells harvested whilst in exponential growth phase. The nuclear extract was prepared according to the methodology described by J. D. Dignam, Nucl. Acid. Res., 1983, 11, 1475-1489, snap frozen in liquid nitrogen and stored at −80° C. The final buffer composition was 20 mM Hepes, 100 mM KCl, 0.2 mM EDTA, 0.5 mM DTT, 0.2 mM PMSF and 20% (v/v) glycerol.

SMILES: CC1CCC(OC(=O)[C@@H](NCc2ccc(/C=C/C(=O)NO)cc2)C2CCCCC2)C1 (stereo partly drawn) [Example 28, 3-Methylcyclopentyl (2S)-cyclohexyl({4-[(1E)-3-(hydroxyamino)-3-oxoprop-1-en-1-yl]benzyl}amino)acetate]
- IC50 [1]: 331 to 3300 nM
- IC50 [2]: 0.331 to 3.3 µM
- IC50 [3]: < 330 nM
- IC50 [4]: 101 to 1000 nM

SMILES: O=C(/C=C/c1ccc(CN2CCC(N[C@H](C(=O)OC3CCCC3)C3CCCCC3)CC2)cc1)NO [Example 80, Cyclopentyl (2S)-cyclohexyl[(1-{4-[(1E)-3-(hydroxyamino)-3-oxoprop-1-en-1-yl]benzyl}piperidin-4-yl)amino]acetate]
- IC50 [1]: < 330 nM
- IC50 [2]: 0.331 to 3.3 µM
- IC50 [3]: < 330 nM
- IC50 [4]: 101 to 1000 nM

SMILES: CC(C)(C)OC[C@H](NCc1ccc(CNCc2ccc(/C=C/C(=O)NO)cc2)cc1)C(=O)OC1CCCC1 [Example 75, Cyclopentyl O-tert-butyl-N-{4-[({4-[(1E)-3-(hydroxyamino)-3-oxoprop-1-en-1-yl]benzyl}amino)methyl]benzyl}-L-serinate]
- IC50 [1]: < 330 nM
- IC50 [2]: 0.331 to 3.3 µM
- IC50 [3]: < 330 nM
- IC50 [4]: 101 to 1000 nM

SMILES: CCOC(=O)[C@@H](NCc1ccc(/C=C/C(=O)NO)cc1)C1CCCCC1 [Example 21, Ethyl (2S)-cyclohexyl({4-[(1E)-3-(hydroxyamino)-3-oxoprop-1-en-1-yl]benzyl}amino)acetate]
- IC50 [1]: < 330 nM
- IC50 [2]: 0.331 to 3.3 µM
- IC50 [3]: < 330 nM
- IC50 [4]: < 100 nM

SMILES: O=C(/C=C/c1ccc(CN2CCC(CN[C@H](C(=O)OC3CCCC3)c3ccccc3)CC2)cc1)NO [Example 82, Cyclopentyl (2S)-{[(1-{4-[(1E)-3-(hydroxyamino)-3-oxoprop-1-en-1-yl]benzyl}piperidin-4-yl)methyl]amino}(phenyl)acetate]
- IC50 [1]: 331 to 3300 nM
- IC50 [2]: 0.331 to 3.3 µM
- IC50 [3]: 331 to 3300 nM
- IC50 [4]: < 100 nM

SMILES: COC(=O)[C@H](Cc1c[nH]c2ccccc12)NCc1ccc(/C=C/C(=O)NO)cc1 [Example 29, Methyl N-{4-[(1E)-3-(hydroxyamino)-3-oxoprop-1-en-1-yl]benzyl}-L-tryptophanate]
- IC50 [1]: 331 to 3300 nM
- IC50 [2]: 0.331 to 3.3 µM
- IC50 [3]: 331 to 3300 nM

SMILES: CC(C)(C)OC[C@H](NCc1ccc(CNCc2cccc(/C=C/C(=O)NO)c2)cc1)C(=O)OC1CCCC1 [Example 74, Cyclopentyl O-tert-butyl-N-{4-[({3-[(1E)-3-(hydroxyamino)-3-oxoprop-1-en-1-yl]benzyl}amino)methyl]benzyl}-L-serinate]
- IC50 [1]: 331 to 3300 nM
- IC50 [2]: > 3.3 µM
- IC50 [3]: < 330 nM

SMILES: CN(C)CCOC(=O)[C@@H](NCc1ccc(/C=C/C(=O)NO)cc1)C1CCCCC1 [Example 31, 2-(Dimethylamino)ethyl (2S)-cyclohexyl({4-[(1E)-3-(hydroxyamino)-3-oxoprop-1-en-1-yl]benzyl}amino)acetate]
- IC50 [1]: 331 to 3300 nM
- IC50 [3]: < 330 nM
- IC50 [4]: < 100 nM

SMILES: CC(C)[C@H]1CC[C@H](C)C[C@@H]1OC(=O)[C@@H](NCc1ccc(CCC(=O)NO)cc1)C1CCCCC1 [Example 48, (1S,2R,5S)-2-Isopropyl-5-methylcyclohexyl (2S)-cyclohexyl({4-[3-(hydroxyamino)-3-oxopropyl]benzyl}amino)acetate]
- IC50 [1]: 331 to 3300 nM
- IC50 [3]: 331 to 3300 nM
- IC50 [4]: > 1000 nM

SMILES: CC(C)C[C@H](NCc1ccc(/C=C/C(=O)NO)nc1)C(=O)OC1CCCC1 [Example 54, Cyclopentyl N-({6-[(1E)-3-(hydroxyamino)-3-oxoprop-1-en-1-yl]pyridin-3-yl}methyl)-L-leucinate]
- IC50 [1]: 331 to 3300 nM
- IC50 [3]: < 330 nM
- IC50 [4]: < 100 nM

SMILES: CC(C)[C@H](NCc1ccc(CCC(=O)NO)cc1)C(=O)OC(C)(C)C [Example 47, tert-Butyl N-{4-[3-(hydroxyamino)-3-oxopropyl]benzyl}-L-valinate]
- IC50 [1]: 331 to 3300 nM
- IC50 [3]: > 3300 nM
- IC50 [4]: > 1000 nM
